In PubChem BioAssay AID492957 (The Scripps Research Institute Molecular Screening Center, 2010):
The source made the active and inactive calls.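 Rule for the calls: active = IC50 at or below 10 µM; inactive = IC50 above 10 µM.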

Tested on: E. coli V66 + T4 gene 2 mutant phage, OD growth
Assay: E. coli RecBCD inhibitors, dose response, counter-screen for AddAB inhibitor project, absorbance, V66 E. coli, mutant T4 phage (AID 492957)

Structure (SMILES): O=C(NCc1cccnc1)c1ccc([N+](=O)[O-])o1
- IC50: 86.4 µM (inactive)
